According to patent publication US8338420B1, “Treatment of Parkinson's disease and enhancement of dopamine signal using PDE 10 inhibitor” (Mitsubishi Tanabe Pharma Corporation, priority 2002, dated 2012):

Target: T1, PDE6 (Bos taurus, UniProt P11541+P23439)
T1 construct: tissue Tokyo Shibaura Zoki; host or cells: bovine retina, rod outer segments, gel filtration, then limited trypsin treatment
T1 sequence (P11541 2-856 limits assumed): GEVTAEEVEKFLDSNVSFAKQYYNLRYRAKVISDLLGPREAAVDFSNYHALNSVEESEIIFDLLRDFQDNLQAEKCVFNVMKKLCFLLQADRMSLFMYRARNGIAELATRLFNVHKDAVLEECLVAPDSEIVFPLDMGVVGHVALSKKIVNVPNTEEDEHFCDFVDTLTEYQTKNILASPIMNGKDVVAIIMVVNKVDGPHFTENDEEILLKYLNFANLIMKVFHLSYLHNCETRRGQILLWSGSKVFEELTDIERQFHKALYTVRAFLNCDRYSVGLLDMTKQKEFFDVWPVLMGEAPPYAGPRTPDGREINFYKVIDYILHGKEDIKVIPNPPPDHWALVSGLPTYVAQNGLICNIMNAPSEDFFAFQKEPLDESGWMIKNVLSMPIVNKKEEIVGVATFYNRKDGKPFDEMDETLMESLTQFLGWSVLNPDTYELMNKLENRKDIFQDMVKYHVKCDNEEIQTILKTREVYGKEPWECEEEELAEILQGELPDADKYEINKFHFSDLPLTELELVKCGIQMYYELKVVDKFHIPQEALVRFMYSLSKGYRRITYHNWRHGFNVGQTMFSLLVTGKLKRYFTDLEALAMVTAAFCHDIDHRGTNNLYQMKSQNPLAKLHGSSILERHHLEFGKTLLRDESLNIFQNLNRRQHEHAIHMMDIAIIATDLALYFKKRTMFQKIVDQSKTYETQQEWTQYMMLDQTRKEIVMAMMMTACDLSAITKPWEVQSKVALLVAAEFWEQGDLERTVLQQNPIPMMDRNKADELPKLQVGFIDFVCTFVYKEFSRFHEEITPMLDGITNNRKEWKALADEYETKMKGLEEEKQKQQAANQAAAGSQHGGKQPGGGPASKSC
T1 sequence (P23439 2-850 limits assumed): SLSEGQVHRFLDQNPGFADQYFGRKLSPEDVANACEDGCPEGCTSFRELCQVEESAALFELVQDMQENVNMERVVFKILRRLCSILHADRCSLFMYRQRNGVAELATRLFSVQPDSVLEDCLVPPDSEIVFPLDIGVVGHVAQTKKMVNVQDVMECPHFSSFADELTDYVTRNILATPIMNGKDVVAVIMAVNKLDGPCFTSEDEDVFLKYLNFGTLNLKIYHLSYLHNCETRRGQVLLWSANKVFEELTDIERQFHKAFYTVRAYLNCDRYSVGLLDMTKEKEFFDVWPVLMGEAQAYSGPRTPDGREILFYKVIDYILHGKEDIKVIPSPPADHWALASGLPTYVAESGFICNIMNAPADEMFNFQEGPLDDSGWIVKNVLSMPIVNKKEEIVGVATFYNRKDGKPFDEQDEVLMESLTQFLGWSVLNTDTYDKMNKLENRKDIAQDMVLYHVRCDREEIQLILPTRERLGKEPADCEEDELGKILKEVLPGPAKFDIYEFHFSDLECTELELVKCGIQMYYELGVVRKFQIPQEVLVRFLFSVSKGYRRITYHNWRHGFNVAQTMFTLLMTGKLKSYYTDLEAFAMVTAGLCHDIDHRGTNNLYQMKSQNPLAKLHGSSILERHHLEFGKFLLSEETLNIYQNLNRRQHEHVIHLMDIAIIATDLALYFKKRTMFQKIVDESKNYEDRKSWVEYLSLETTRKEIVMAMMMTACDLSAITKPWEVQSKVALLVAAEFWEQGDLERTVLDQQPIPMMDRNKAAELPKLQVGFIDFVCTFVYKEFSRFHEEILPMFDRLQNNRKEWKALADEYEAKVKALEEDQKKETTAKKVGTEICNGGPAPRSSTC
Assay: PDE assay, trypsin-activated PDE6 from bovine retina
Assay type: biochemical
Details: substrate about 12 nM [3H]-cGMP and 10 μM cGMP
Procedure: From the bovine eyeball, purchased from Tokyo Shibaura Zoki, co., Ltd., retina (pale red colored) which is present as a membrane on the pigmented layer was collected and stored at −70° C.
To buffer A [16 mM MOPS-NaOH, pH7.5, 1.6 mM dithiothreitol, 8 mM magnesium chloride, 96 mM potassium chloride, 48 mM sodium chloride, 0.16 mM phenylmethylsulfonyl fluoride, 10 μM pepstatin A, 10 μM leupeptin] (20 ml), sucrose (6 g) was dissolved. Added thereto was the above-mentioned retina (about 7 g), and the mixture was stirred for 30 minutes while cutting the retina by scissors. The mixture was applied to centrifugation at 2000 rpm, at 4° C. for 5 minutes and the supernatant was collected. To the resultant residue was added buffer B[10 mM MOPS, pH7.5, 1 mM dithiothreitol, 5 mM magnesium chloride, 60 mM potassium chloride, 30 mM sodium chloride, 0.1 mM phenylmethylsulfonyl fluoride, 10 μM pepstatin A, 10 μM leupeptin] (40 ml), and the mixture was stirred by rolling several times. This was applied to centrifugation and the resultant supernatant was combined with the above obtained supernatant. This is further centrifuged at 7000 rpm, at 4° C., for 5 minutes, and the precipitates were obtained as crude rod outer segment (ROS). […]
Further, PDE assay was carried out using the above-eluted fractions as an enzyme solution, and cGMP-hydrolyzing activity was measured. […]

- IC50: 290 nM
SMILES: COc1ccc(-c2cc(N3CCCC3)nc(/C=C/c3nc(-n4ccnc4)c4ccccc4n3)n2)cc1OC [Compound A, 2-{(E)-2-[4-(1-imidazolyl)-quinazolin-2-yl]}ethenyl-4-(3,4-dimethoxy)phenyl-6-(pyrrolidin-1-yl)pyrimidine]
